This passage reports ring closure, isolated yield and ring closure, yield of all isomers results from patent US20220153741A1, “HETEROCYCLIC COMPOUNDS AS INHIBITORS OF KRAS G12C” (Guangdong Newopp Biopharmaceuticals Co., Ltd., priority 2019, published 2022).

For data set [1] the following is noted: from CC(C)c1nccc(CCC(=O)O)c1-n1c(=O)[nH]c(=O)c2cc(F)c(-c3c(N)cccc3Cl)nc21; amide bond; 12-membered ring; T3P; DCE; 39.3 mM; 50.0 °C.
For data set [2] the following is noted: amide bond.

Like-named read-outs stand apart in the source and are kept apart here.

Molecule `CC(C)c1nccc2c1-n1c(=O)[nH]c(=O)c3cc(F)c(nc31)-c1c(Cl)cccc1NC(=O)CC2` had a ring closure, isolated yield in data set [1] of 29%. The molecule also returned a ring closure, yield of all isomers in data set [2] (from CC(C)c1nccc(CCC(=O)O)c1-n1c(=O)[nH]c(=O)c2cc(F)c(-c3c(N)cccc3Cl)nc21, T3P, DCE, 39.3 mM, 50.0 °C, 1.0 h) of 29%. For `CC(C)c1nccc2c1-n1c(=O)[nH]c(=O)c3cc(F)c(nc31)-c1c(F)cccc1NC(=O)CCS2`, the ring closure, yield of all isomers in data set [2] (from CC(C)c1nccc(SCCC(=O)O)c1-n1c(=O)[nH]c(=O)c2cc(F)c(-c3c(N)cccc3F)nc21, T3P, DCE, 58.3 mM, 55.0 °C, 16.0 h) was determined as 37.4%. Molecule `CC(C)c1nccc2c1-n1c(=O)nc(O)c3cc(F)c(nc31)-c1c(F)cccc1NC(=O)CS2` registered a ring closure, yield of all isomers in data set [2] (from CC(C)c1nccc(SCC(=O)OC(C)(C)C)c1-n1c(=O)nc(O)c2cc(F)c(-c3c(N)cccc3F)nc21, TCFH/N-methylimidazole, DMF, 7.2 mM, 25.0 °C, 1.0 h, 2 steps) of 44.4%.
